Assay results from PubChem BioAssay (NCI).
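Grown in 96-well plates, cells were treated for 48 hours with each compound at five concentrations. Insufficient inhibition: endpoint recorded as highest concentration tested. TGI: concentration producing complete growth inhibition.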

Columns and labels:
Assay in all cases: NCI tumour cell line growth inhibition, 48 h
MOLT-4 leukemia = tested on: MOLT-4 leukemia
OVCAR-8 ovarian = tested on: OVCAR-8 ovarian
A549 NSCLC = tested on: A549 NSCLC
RXF 393 renal = tested on: RXF 393 renal
DU-145 prostate = tested on: DU-145 prostate
HL-60(TB) leukemia = tested on: HL-60(TB) leukemia
HT29 colon = tested on: HT29 colon
SNB-19 CNS = tested on: SNB-19 CNS
HCT-15 colon = tested on: HCT-15 colon
SK-MEL-5 melanoma = tested on: SK-MEL-5 melanoma
SF-539 CNS = tested on: SF-539 CNS
M14 melanoma = tested on: M14 melanoma
OVCAR-3 ovarian = tested on: OVCAR-3 ovarian
HCT-116 colon = tested on: HCT-116 colon
T-47D breast = tested on: T-47D breast
MDA-MB-231 breast = tested on: MDA-MB-231 breast

Structure (SMILES)	TGI (MOLT-4 leukemia) [µM]	TGI (OVCAR-8 ovarian) [µM]	TGI (A549 NSCLC) [µM]	TGI (RXF 393 renal) [µM]	TGI (DU-145 prostate) [µM]	TGI (HL-60(TB) leukemia) [µM]	TGI (HT29 colon) [µM]	TGI (SNB-19 CNS) [µM]	TGI (HCT-15 colon) [µM]	TGI (SK-MEL-5 melanoma) [µM]	TGI (SF-539 CNS) [µM]	TGI (M14 melanoma) [µM]	TGI (OVCAR-3 ovarian) [µM]	TGI (HCT-116 colon) [µM]	TGI (T-47D breast) [µM]	TGI (MDA-MB-231 breast) [µM]
COc1cc2c3c(c1)CCCN3CCC2	> 10	> 10	> 10	> 10	> 10	> 10	> 10	> 10	> 10	> 10	> 10	> 10	> 10	> 10	> 10	> 10
CCN(CC)CC1CCCCN1CC(=O)N1c2ccccc2C(=O)Nc2cccnc21 (configuration not stated)	55.5	> 100	35.4	> 100	> 100	35	> 100	> 100	> 100	> 100	> 100	> 100	> 100	37.2	> 100	75.8
CN(C)c1ccc(C(Cc2ccccc2)C2NC(=S)NC2=O)cc1 (configuration not stated)	> 100	> 100	> 100	> 100	> 100	> 100	> 100	> 100	> 100	> 100	> 100	> 100	> 100	> 100	> 100	> 100
C[C@]12CC[C@@H]3c4cc(OCC(F)(F)F)c(O)cc4CC[C@H]3[C@@H]1CC[C@@H]2O	18.9	34.3	20.6	8.68	29.4	10.7	15.3	18.1	15.2	15.4	7.27	16.8	12.9	16.7	49.5	3.11
CCC1(c2ccccc2)C(=O)N=C(c2ccccc2)N1CCc1ccccc1 (configuration not stated)	> 100	> 100	> 100	> 100	> 100	> 100	> 100	> 100	> 100	> 100	> 100	> 100	> 100	> 100	> 100	> 100
C=CCN1C(=O)/C(=C/c2cccs2)N=C1SC/C=C/C	44.6	> 100	> 100	85.2	> 100	62.2	> 100	> 100	> 100	37.7	> 100	> 100	> 100	> 100	> 100	> 100
Cc1ccc(NC(Nc2ccc(C)cc2C)=C(/C=C(\Cl)[N+](=O)[O-])[N+](=O)[O-])c(C)c1	4.82	7.86	35	3.75	33.2	2.6	18.8	26	11.5	13.4	23.3	5.69	8.7	3.14	3.99	17.3
COCc1nc(N)nc(N2N=C(C)CC2(C)C)n1	> 100	> 100	> 100	> 100	> 100	> 100	> 100	> 100	> 100	> 100	> 100	> 100	> 100	> 100	> 100	> 100
CC(=O)Nc1ccc(C(O)/C(=N/N)c2nc3ccc(Cl)cc3[nH]c2=O)cc1 (configuration not stated)	> 100	> 100	> 100	> 100	> 100	> 100	> 100	> 100	> 100	> 100	> 100	> 100	> 100	> 100	> 100	> 100
Cc1cc(C)c(-n2[nH]c(=O)n(C)c2=O)c(C)c1	> 100	> 100	> 100	> 100	> 100	> 100	> 100	> 100	> 100	> 100	> 100	> 100	> 100	> 100	> 100	> 100
COC1=CC(=O)C2=C(C1=O)[C@H]1CC[C@]3(C)[C@@H](O)CC[C@H]3[C@@H]1CC2	20.8	31.6	34.7	46.5	31	46.5	19	73.2	31.9	28.8	30.6	31.3	32.3	30.7	38.4	5.84
O=C(O)C12C3CCC(CC3)C1(C(=O)O)C1CCC2C1 (configuration not stated)	> 100	> 100	> 100	> 100	> 100	> 100	> 100	> 100	> 100	> 100	> 100	> 100	> 100	> 100	> 100	> 100
